The values that follow come from ChEMBL document CHEMBL3877329, “Antiprotozoal glutathione derivatives with flagellar membrane binding activity against T. brucei rhodesiense” (Bioorg Med Chem, 2017).

The subject of series [1] is Trypanosoma brucei rhodesiense. In words: Antitrypanosomal activity against Trypanosoma brucei rhodesiense STIB900 bloodstream trypomastigote forms measured on day 3 post treatment by alamar blue assay. The series is classed as functional. Particulars: STIB900, 72 h, read-out: ED50 (the source's name). A general note: Alamar Blue is a resazurin reagent that responds to reducing activity.

For series [2], the system named is Leishmania donovani. In words: Antileishmanial activity against Leishmania donovani MHOM/ET/67/HU3 amastigotes infected in CD1 mouse peritoneal macrophages after 5 days. Particulars: for EC50: MHOM/ET/67/HU3, 120 h, read-out: ED50 (the source's name). The series is classed as functional.
The nature of series [3]: Cytotoxicity against human KB cells after 3 days by fluorometric assay. The class given is toxicity, cell-based. Particulars: read-out: ED50.
Series [4] in a line: Selectivity index, ratio of ED50 for human KB cells to ED50 for Trypanosoma brucei rhodesiense STIB900 bloodstream trypomastigote forms. The class given is toxicity, cell-based. The conditions noted are these: read-out: Ratio ED50.
In series [5] the test system is Trypanosoma cruzi. Nature of the series: Antitrypanosomal activity against Trypanosoma cruzi MHOM/BR/OO/Y trypomastigotes infected in CD1 mouse peritoneal macrophages after 3 days. The series is classed as functional. Particulars: 72 h, read-out: ED50 (the source's name).
For series [6], the species on record is Mus musculus. Nature of the series: Cytotoxicity against CD1 mouse peritoneal macrophages assessed as induction of cell membrane lysis at 30 uM by optical microscopic method. The series is classed as toxicity. The conditions noted are these: peritoneal macrophage.
Series [7] relates to Trypanosoma brucei brucei. In words: Antitrypanosomal activity against Trypanosoma brucei brucei S247 bloodstream forms assessed as immobility of parasite at 50 uM up to 1 min by optical microscopic method. The class given is functional.
For series [8], the system named is Trypanosoma brucei brucei. In words: Antitrypanosomal activity against Trypanosoma brucei brucei S247 bloodstream forms assessed as swelling of parasite head at 50 uM after 5 mins by optical microscopic method. The class given is functional.
The test system of series [9] is Trypanosoma brucei brucei. Nature of the series: Antitrypanosomal activity against Trypanosoma brucei brucei S247 bloodstream forms assessed as circular appearance at 50 uM after 30 to 40 mins by optical microscopic method. The class given is functional.
Series [10] has as its system Trypanosoma brucei brucei. In words: Antitrypanosomal activity against Trypanosoma brucei brucei S247 bloodstream forms assessed as swirling motion of cell particles at 50 uM after 1 hr by optical microscopic method. The class given is functional.
The test system of series [11] is Trypanosoma brucei brucei. In words: Antitrypanosomal activity against Trypanosoma brucei brucei S247 bloodstream forms. The class given is functional. Particulars: read-out: ED50 (the source's name).
A short description of series [12]: Drug release fromTrypanosoma brucei brucei S247 bloodstream forms cell membrane at 50 uM after 120 mins in presence of 1 M NaCl by HPLC-UV method. The series is classed as ADME. The conditions noted are these: trypanosoma brucei brucei, 2 h.
Series [13] is described as follows: Drug release from Trypanosoma brucei brucei S247 bloodstream forms cell membrane at 50 uM after 120 mins in presence of 6 M urea by HPLC-UV method. The class given is ADME, tissue-based. The conditions noted are these: blood, 2 h.
Series [14] is described as follows: Drug uptake in Trypanosoma brucei brucei S247 bloodstream forms at 50 uM after 5 mins by HPLC-UV method. The series is classed as ADME.
The nature of series [15]: Drug release from Trypanosoma brucei brucei S247 bloodstream forms cell membrane treated with N-benzyloxy carbonyl-S-(4-bromobenzyl)glutathione dimethyl ester at 50 uM after 120 mins in presence of 1 M NaCl by HPLC-UV method. The class given is ADME. Particulars: 2 h.
Series [16] can be described thus: Drug release from Trypanosoma brucei brucei S247 bloodstream forms cell membrane treated with N-benzyloxy carbonyl-S-(4-bromobenzyl)glutathione dimethyl ester at 50 uM after 120 mins in presence of 6 M urea by HPLC-UV method. The class given is ADME, tissue-based. The conditions noted are these: blood, 2 h.

Activity calls are given as the source filed them. No cut-off for these calls is given here. A value given as a limit tells only on which side of the number the result lay.

Consider `CCCCOC(=O)CNC(=O)[C@H](CSc1ccc([N+](=O)[O-])cc1[N+](=O)[O-])NC(=O)CC[C@H](NC(=O)OCc1ccccc1)C(=O)OCCCC`, for which the results for the EC50 in [1] and in series [2] were 420 nM and more than 30 µM, respectively. Also, the CC50 at 72 h in [3] turned out to be 95.2 µM. Also, the selectivity ratio in [4] came out at 227.
Take `O=C(Cn1ccnc1[N+](=O)[O-])NCc1ccccc1` [BENZNIDAZOLE]: the EC50 in series [5] was 4.4 µM.
On to `CCCCOC(=O)CNC(=O)[C@H](CSc1ccc([N+](=O)[O-])cc1[N+](=O)[O-])NC(=O)CC[C@H](NC(=O)C(C)C)C(=O)OCCCC`, for which the values for the EC50 in series [1] and in series [5] were 730 nM and 30.8 µM, respectively. Also, the CC50 at 72 h in [3] was more than 300 µM. In series [4], the selectivity ratio is more than 411.
With `CCCCOC(=O)CNC(=O)[C@H](CSc1ccc([N+](=O)[O-])cc1[N+](=O)[O-])NC(=O)CC[C@H](N)C(=O)OCCCC`, the EC50 is 1880 nM in series [1] and 19.9 µM in series [2]. Moreover, in series [3], the CC50 at 72 h stood at 107 µM. Also, the selectivity ratio in series [4] came out at 57.1. Moreover, the Activity result in series [6] is listed as “Toxic”.
For the compound Sodium stibogluconate, in series [2], the ED50 turned out to be 33 µg/mL.
In the case of `CCCCOC(=O)CNC(=O)[C@H](CSc1ccc([N+](=O)[O-])cc1[N+](=O)[O-])NC(=O)CC[C@H](NC(=O)COc1ccccc1)C(=O)OCCCC`, the EC50 is 600 nM in [1] and more than 30 µM in series [5]. Also, the CC50 at 72 h in series [3] is more than 300 µM. In addition, the selectivity ratio in series [4] is more than 500.
`CCCCOC(=O)CNC(=O)[C@H](CSc1ccc([N+](=O)[O-])cc1[N+](=O)[O-])NC(=O)CC[C@H](Nc1nc(N)nc(Cl)n1)C(=O)OCCCC`: in [1], the EC50 was found to be 18800 nM. Besides, in series [3], the CC50 at 72 h is more than 300 µM. Besides, the selectivity ratio in series [4] was more than 15.9.
As to `COC(=O)CNC(=O)[C@H](CSCc1ccc(Br)cc1)NC(=O)CC[C@H](NC(=O)OCc1ccccc1)C(=O)OC`, the result in series [7], in series [8], in series [9] and in series [10] was Active. The EC50 in series [11] was found to be 30 µM. Also, the Drug uptake in [12] is 76%; in [13], 80%; in series [14] it was “Active”.
Turning to `CCCCOC(=O)CNC(=O)[C@H](CSc1ccc([N+](=O)[O-])cc1[N+](=O)[O-])NC(=O)CC[C@H](NC(=O)OC(C)(C)C)C(=O)OCCCC`, the EC50 in series [1] came out at 220 nM; in [2], 9.9 µM; in series [5], 16.5 µM. Besides, the CC50 at 72 h in series [3] turned out to be 70.4 µM. The selectivity ratio in [4] was found to be 320.
Take `CCCCCCCCCCCCCC(=O)N[C@@H](CCC(=O)N[C@@H](CSc1ccc([N+](=O)[O-])cc1[N+](=O)[O-])C(=O)NCC(=O)OCCCC)C(=O)OCCCC`: the EC50 in series [1] was 32600 nM; in series [5], more than 30 µM. In addition, in series [3], the CC50 at 72 h was more than 300 µM. In addition, the selectivity ratio in [4] is more than 9.2.
For the compound `CCCCOC(=O)CNC(=O)[C@H](CSc1ccc([N+](=O)[O-])cc1[N+](=O)[O-])NC(=O)CC[C@H](NC(=O)CCc1c[nH]c2ccccc12)C(=O)OCCCC`, the EC50 in [1] is 300 nM; in series [5] it was 35 µM. The CC50 at 72 h in [3] was 26 µM. For the same compound, the selectivity ratio in series [4] came to 87.
As for `CCCCOC(=O)CNC(=O)[C@H](CSc1ccc([N+](=O)[O-])cc1[N+](=O)[O-])NC(=O)CC[C@H](NC(=O)CCC(C)C)C(=O)OCCCC`, in series [1], the EC50 is 1020 nM. Moreover, in series [3], the CC50 at 72 h is 84 µM. The selectivity ratio in series [4] stood at 82.3.
For the compound `CCCCOC(=O)CNC(=O)[C@H](CSc1ccc([N+](=O)[O-])cc1[N+](=O)[O-])NC(=O)CC[C@H](NC(=O)CCc1ccccc1)C(=O)OCCCC`, the EC50 is 2020 nM in [1], more than 30 µM in [2] and more than 30 µM in series [5]. Besides, the CC50 at 72 h in [3] is more than 300 µM. The selectivity ratio in [4] is more than 148.
For the compound `CCCCOC(=O)CNC(=O)[C@H](CSc1ccc([N+](=O)[O-])cc1[N+](=O)[O-])NC(=O)CC[C@H](NC(=O)CC(C)C)C(=O)OCCCC`, the EC50 is 1160 nM in [1], more than 30 µM in series [2] and more than 30 µM in series [5]. In addition, the CC50 at 72 h in series [3] was 59.6 µM. Moreover, in series [4], the selectivity ratio was 51.4.
For the compound `COC(=O)CNC(=O)[C@H](CSCc1ccc(Br)cc1)NC(=O)CC[C@H](NC(=O)OCc1ccccc1)C(=O)O`, the Drug uptake in [15] amounted to 24%; in series [16] it was 8%.
Turning to `N=C(N)c1ccc(OCCCCCOc2ccc(C(=N)N)cc2)cc1`, the EC50 in series [1] came to 0.33 nM.
As for `CCCCOC(=O)CNC(=O)[C@H](CSc1ccc([N+](=O)[O-])cc1[N+](=O)[O-])NC(=O)CC[C@H](Nc1ccc([N+](=O)[O-])cc1[N+](=O)[O-])C(=O)OCCCC`, the EC50 in series [1] was 720 nM. In addition, the CC50 at 72 h in [3] was more than 300 µM. Moreover, in series [4], the selectivity ratio was more than 417.
For the compound `CCCCOC(=O)CNC(=O)[C@H](CSc1ccc([N+](=O)[O-])cc1[N+](=O)[O-])NC(=O)CC[C@H](NC(=O)/C=C/c1ccccc1)C(=O)OCCCC`, the EC50 is 280 nM in [1] and more than 30 µM in series [5]. Besides, in series [3], the CC50 at 72 h was 34.4 µM. Further, the selectivity ratio in [4] worked out at 123.
For `CCCCOC(=O)CNC(=O)[C@H](CSc1ccc([N+](=O)[O-])cc1[N+](=O)[O-])NC(=O)CC[C@H](NC(=O)c1ccccc1)C(=O)OCCCC`, the EC50 in series [1] came out at 550 nM; in series [5], 22.9 µM. Besides, the CC50 at 72 h in series [3] was more than 300 µM. Besides, the selectivity ratio in series [4] was more than 545.
With `CCCCOC(=O)CNC(=O)[C@H](CSc1ccc([N+](=O)[O-])cc1[N+](=O)[O-])NC(=O)CC[C@H](NC(=O)OC12CC3CC(CC(C3)C1)C2)C(=O)OCCCC`, the values for the EC50 in series [1], in [2] and in [5] were 500 nM, 10.1 µM and 4.5 µM, respectively. The CC50 at 72 h in [3] is more than 300 µM. Also, the selectivity ratio in series [4] was more than 600.
In the case of `O=C(O)CNC(=O)[C@H](CSCc1ccc(Br)cc1)NC(=O)CC[C@H](NC(=O)OCc1ccccc1)C(=O)O`, in series [16], the Drug uptake was found to be 12%.
For the compound `N[C@@H](CCC(=O)N[C@@H](CSc1ccc([N+](=O)[O-])cc1[N+](=O)[O-])C(=O)NCC(=O)O)C(=O)O`, the EC50 in series [1] is more than 30000 nM; in series [2], more than 30 µM; in series [5], more than 30 µM.
For the compound `CCCCOC(=O)CNC(=O)[C@H](CSc1ccc([N+](=O)[O-])cc1[N+](=O)[O-])NC(=O)CC[C@H](NC(=O)C(C)(C)C)C(=O)OCCCC`, the EC50 stood at 600 nM in series [1] and 8.4 µM in series [5]. Besides, the CC50 at 72 h in series [3] was 83.4 µM. For the same compound, the selectivity ratio in series [4] was found to be 139.
As for `CCCCOC(=O)CNC(=O)[C@H](CSc1ccc([N+](=O)[O-])cc1[N+](=O)[O-])NC(=O)CC[C@H](NC(=O)OC)C(=O)OCCCC`, the values for the EC50 in series [1], in series [2] and in series [5] were 2150 nM, more than 30 µM and 30.4 µM, respectively. In addition, the CC50 at 72 h in series [3] is more than 300 µM. The selectivity ratio in [4] is more than 139.
For `CCCCOC(=O)CNC(=O)[C@H](CSc1ccc([N+](=O)[O-])cc1[N+](=O)[O-])NC(=O)CC[C@H](NC(C)=O)C(=O)OCCCC`, the figures for the EC50 in series [1] and in [5] were 6520 nM and 37.8 µM, respectively. In addition, the CC50 at 72 h in series [3] was more than 300 µM. Moreover, the selectivity ratio in series [4] was more than 46.
For `CCCCOC(=O)CNC(=O)[C@H](CSc1ccc([N+](=O)[O-])cc1[N+](=O)[O-])NC(=O)CC[C@H](NC(=O)CC(C)(C)C)C(=O)OCCCC`, in that order: 4380 nM, 12 µM, 250 µM and 57.1.
